This passage reports IC50 results from US20250163054A1, “SUBSTITUTED BICYCLIC HETEROARYL COMPOUNDS USEFUL AS INHIBITORS OF TLR9” (Bristol-Myers Squibb Company, priority 2022, published 2025).

Common to all, as to format: cell-based
One assay concerns the target T1, human TLR7 (Homo sapiens, UniProt Q9NYK1).
T1 construct: host or cells: HEK-Blue cells (HEK293-derived reporter line)
T1 sequence (Q9NYK1 27-1049): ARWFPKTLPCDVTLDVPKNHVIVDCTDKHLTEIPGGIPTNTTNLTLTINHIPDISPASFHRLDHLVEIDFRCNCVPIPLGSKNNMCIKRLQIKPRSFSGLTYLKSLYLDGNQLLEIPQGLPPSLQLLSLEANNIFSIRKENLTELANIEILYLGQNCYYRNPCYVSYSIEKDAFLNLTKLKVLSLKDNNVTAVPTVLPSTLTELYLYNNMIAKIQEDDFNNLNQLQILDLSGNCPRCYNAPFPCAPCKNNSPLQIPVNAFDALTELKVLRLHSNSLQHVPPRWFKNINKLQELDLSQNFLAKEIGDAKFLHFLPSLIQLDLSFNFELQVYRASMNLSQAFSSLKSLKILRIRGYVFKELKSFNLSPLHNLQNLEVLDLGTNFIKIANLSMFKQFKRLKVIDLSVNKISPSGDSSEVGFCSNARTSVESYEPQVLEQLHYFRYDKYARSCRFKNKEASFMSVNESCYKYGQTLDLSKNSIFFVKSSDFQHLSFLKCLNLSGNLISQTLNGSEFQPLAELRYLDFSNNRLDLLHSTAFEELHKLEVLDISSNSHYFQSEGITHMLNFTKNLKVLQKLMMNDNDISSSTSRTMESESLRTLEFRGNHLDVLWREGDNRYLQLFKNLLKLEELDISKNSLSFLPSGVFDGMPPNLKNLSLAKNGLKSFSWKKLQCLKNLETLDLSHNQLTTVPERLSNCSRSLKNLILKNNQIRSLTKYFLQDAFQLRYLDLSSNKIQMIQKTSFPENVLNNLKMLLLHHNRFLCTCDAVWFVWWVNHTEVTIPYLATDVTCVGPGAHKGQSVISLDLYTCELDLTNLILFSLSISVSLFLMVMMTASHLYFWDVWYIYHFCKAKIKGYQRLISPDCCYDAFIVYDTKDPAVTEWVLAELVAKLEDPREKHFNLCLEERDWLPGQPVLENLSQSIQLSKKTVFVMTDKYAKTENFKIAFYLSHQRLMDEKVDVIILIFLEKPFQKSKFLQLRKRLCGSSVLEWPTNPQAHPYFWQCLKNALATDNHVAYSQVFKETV
Nature of the assay: TLR7/8/9 Inhibition Reporter Assays (TLR7). As to conditions: HEK-Blue cells overexpressing human TLR7, SEAP reporter, stimulated with TLR7 ligand gardiquimod. The method in brief: (§1)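 HEK-Blue cells overexpressing human TLR7, TLR8 or TLR9 with NF-κB/AP-1-driven SEAP reporter, pre-treated 60 min with compound ([…]). Stimulated with […] (TLR7), […] (TLR8) or ODN2006 200 nM (TLR9), then 22 h at 37° C; SEAP measured, % inhibition relative to agonist-plus-DMSO and known-inhibitor wells.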

For another assay, the target named is T2, human TLR9 (Homo sapiens, UniProt Q9NR96).
T2 construct: host or cells: HEK-Blue cells (HEK293-derived reporter line)
T2 sequence (Q9NR96 26-1032): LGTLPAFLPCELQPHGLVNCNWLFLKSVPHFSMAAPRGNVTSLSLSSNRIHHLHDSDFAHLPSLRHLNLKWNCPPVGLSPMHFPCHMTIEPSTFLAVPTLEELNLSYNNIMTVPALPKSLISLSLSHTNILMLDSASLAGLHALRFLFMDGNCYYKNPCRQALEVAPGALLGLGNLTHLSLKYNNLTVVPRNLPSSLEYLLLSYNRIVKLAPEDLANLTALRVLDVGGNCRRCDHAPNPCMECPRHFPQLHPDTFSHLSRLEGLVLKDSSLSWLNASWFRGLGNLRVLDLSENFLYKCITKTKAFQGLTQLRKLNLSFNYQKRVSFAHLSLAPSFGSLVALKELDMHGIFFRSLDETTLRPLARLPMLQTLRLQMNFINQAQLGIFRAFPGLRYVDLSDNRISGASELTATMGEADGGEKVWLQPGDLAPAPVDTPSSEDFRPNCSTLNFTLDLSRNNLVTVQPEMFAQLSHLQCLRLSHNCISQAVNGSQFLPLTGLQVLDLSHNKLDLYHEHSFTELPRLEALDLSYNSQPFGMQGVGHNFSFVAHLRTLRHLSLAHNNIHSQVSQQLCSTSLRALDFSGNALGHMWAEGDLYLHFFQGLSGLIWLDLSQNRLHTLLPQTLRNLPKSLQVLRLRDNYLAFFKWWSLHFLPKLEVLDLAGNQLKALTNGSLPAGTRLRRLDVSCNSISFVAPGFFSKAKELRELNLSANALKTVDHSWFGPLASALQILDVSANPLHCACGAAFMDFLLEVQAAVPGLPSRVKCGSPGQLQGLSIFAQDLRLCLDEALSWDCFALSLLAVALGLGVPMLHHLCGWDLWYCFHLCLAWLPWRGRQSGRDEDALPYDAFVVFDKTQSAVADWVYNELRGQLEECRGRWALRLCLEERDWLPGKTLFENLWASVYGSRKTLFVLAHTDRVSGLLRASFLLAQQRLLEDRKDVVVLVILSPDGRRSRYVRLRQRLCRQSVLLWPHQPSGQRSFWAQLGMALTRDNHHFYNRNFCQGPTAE
In words: TLR7/8/9 Inhibition Reporter Assays (TLR9). The following applies: HEK-Blue cells overexpressing human TLR9, SEAP reporter, stimulated with TLR9 ligand ODN2006. Summed up: as §1
On the technique in general: Reporter assays use an easily measured gene product as a stand-in for the process of interest.

The next assay has as its target T3, human TLR8 (Homo sapiens, UniProt Q9NR97).
T3 construct: host or cells: HEK-Blue cells (HEK293-derived reporter line)
T3 sequence (Q9NR97 27-1041): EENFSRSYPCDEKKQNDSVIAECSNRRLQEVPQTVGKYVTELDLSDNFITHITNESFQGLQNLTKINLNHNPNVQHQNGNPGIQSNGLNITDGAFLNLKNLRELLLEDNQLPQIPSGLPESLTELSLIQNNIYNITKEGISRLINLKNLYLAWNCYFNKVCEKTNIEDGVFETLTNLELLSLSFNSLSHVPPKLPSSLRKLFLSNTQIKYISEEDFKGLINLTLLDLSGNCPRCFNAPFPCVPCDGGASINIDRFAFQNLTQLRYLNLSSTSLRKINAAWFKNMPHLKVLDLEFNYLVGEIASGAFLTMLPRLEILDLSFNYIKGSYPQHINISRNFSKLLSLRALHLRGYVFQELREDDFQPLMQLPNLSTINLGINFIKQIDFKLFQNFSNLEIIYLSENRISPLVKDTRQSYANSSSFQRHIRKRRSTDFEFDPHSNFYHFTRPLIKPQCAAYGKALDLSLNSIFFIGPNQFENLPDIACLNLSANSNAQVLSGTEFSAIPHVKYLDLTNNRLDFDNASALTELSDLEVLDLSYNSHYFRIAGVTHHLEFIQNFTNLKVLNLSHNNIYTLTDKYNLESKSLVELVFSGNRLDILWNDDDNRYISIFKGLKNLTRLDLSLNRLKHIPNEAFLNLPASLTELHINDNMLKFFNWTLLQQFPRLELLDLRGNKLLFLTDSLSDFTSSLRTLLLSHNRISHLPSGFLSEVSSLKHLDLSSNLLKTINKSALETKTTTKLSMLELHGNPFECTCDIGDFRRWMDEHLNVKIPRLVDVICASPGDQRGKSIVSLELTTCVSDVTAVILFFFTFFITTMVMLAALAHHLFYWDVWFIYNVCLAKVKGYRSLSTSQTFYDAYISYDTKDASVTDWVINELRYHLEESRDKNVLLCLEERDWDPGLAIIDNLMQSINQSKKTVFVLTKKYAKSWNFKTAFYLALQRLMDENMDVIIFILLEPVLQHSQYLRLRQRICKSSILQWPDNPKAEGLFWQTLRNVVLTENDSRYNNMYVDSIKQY
In words: TLR7/8/9 Inhibition Reporter Assays (TLR8). The following applies: HEK-Blue cells overexpressing human TLR8, SEAP reporter, stimulated with TLR8 ligand R848. The method in brief: as §1

In the case of `Cc1nc(-c2ccc(N3CCC4(CC3)CN(C(C)C)C4)cc2)cc2c1nc(-c1ccc(S(C)(=O)=O)cc1)n2C` [Example 72, 6-(4-(2-isopropyl-2,7-diazaspiro[3.5]nonan-7-yl)phenyl)-1,4-dimethyl-2-(4-(methylsulfonyl)phenyl)-1H-imidazo[4,5-c]pyridine], the IC50 against human TLR7 is 650 nM; against human TLR9 it was 160 nM; against human TLR8, 6000 nM.

In the case of `Cc1nc(-c2ccc(C3CCN(C(C)C)CC3)cc2)cc2c1nc(-c1ccc(S(C)(=O)=O)cc1)n2C` [Example 2, 6-(4-(1-isopropylpiperidin-4-yl)phenyl)-1,4-dimethyl-2-(4-(methylsulfonyl)phenyl)-1H-imidazo[4,5-c]pyridine], the figures for the IC50 at human TLR7, on human TLR9 and against human TLR8 were 12000 nM, 300 nM and 36000 nM, respectively.

On to `CC(C)N1CCC(N2CCC(c3cc4c(nc(-c5ccc(S(C)(=O)=O)cc5)n4C)c(C(F)(F)F)n3)CC2)CC1` [Example 3, 6-(1′-isopropyl-[1,4′-bipiperidin]-4-yl)-1-methyl-2-(4-(methylsulfonyl)phenyl)-4-(trifluoromethyl)-1H-imidazo[4,5-c]pyridine], for which the figures for the IC50 at human TLR7, against human TLR9 and against human TLR8 were 3100 nM, 110 nM and over 50000 nM, respectively.

Regarding `Cc1nc(C2CCN(C3CCN(CC(C)C)CC3)CC2)cc2c1nc(-c1ccc(S(C)(=O)=O)cc1)n2C` [Example 39, 6-(1′-isobutyl-[1,4′-bipiperidin]-4-yl)-1,4-dimethyl-2-(4-(methylsulfonyl)phenyl)-1H-imidazo[4,5-c]pyridine], the figures for the IC50 against human TLR7, on human TLR9 and against human TLR8 were 920 nM, 36 nM and over 50000 nM, respectively.

As to `CC(C)CN1CC2(C1)CN(c1ccc(-c3cc4c(cn3)nc(-c3ccc(S(C)(=O)=O)cc3)n4C3CC3)cc1)C2` [Example 90, 1-cyclopropyl-6-(4-(6-isobutyl-2,6-diazaspiro[3.3]heptan-2-yl)phenyl)-2-(4-(methylsulfonyl)phenyl)-1H-imidazo[4,5-c]pyridine], the IC50 against human TLR7 worked out at 5800 nM; on human TLR9 it was 440 nM; on human TLR8, 2900 nM.

With `Cc1nc(-c2ccc(N3CCN(CC4CC4)CC3)cc2)cc2c1nc(-c1ccc(S(C)(=O)=O)cc1)n2C` [Example 20, 6-(4-(4-(cyclopropylmethyl)piperazin-1-yl)phenyl)-1,4-dimethyl-2-(4-(methylsulfonyl)phenyl)-1H-imidazo[4,5-c]pyridine], the figures for the IC50 against human TLR7, at human TLR9 and against human TLR8 were 2900 nM, 360 nM and 12000 nM, respectively.

Take `Cc1nc(-c2ccc(N3CC4(C3)CN(C(C)C)C4)cc2)cc2c1nc(-c1ccc(S(C)(=O)=O)cc1)n2C` [Example 78, 6-(4-(6-isopropyl-2,6-diazaspiro[3.3]heptan-2-yl)phenyl)-1,4-dimethyl-2-(4-(methylsulfonyl)phenyl)-1H-imidazo[4,5-c]pyridine]: the IC50 against human TLR7 stood at 7800 nM; at human TLR9 it was 130 nM; against human TLR8, 6300 nM.

As for `COc1cc(-c2nc3c(C)nc(-c4ccc(N5CCN(CC6CC6)CC5)cc4)cc3n2C)cn2ncnc12` [Example 11, 6-(6-(4-(4-(cyclopropylmethyl)piperazin-1-yl)phenyl)-1,4-dimethyl-1H-imidazo[4,5-c]pyridin-2-yl)-8-methoxy-[1,2,4]triazolo[1,5-a]pyridine], the values for the IC50 against human TLR7, at human TLR9 and against human TLR8 were 1100 nM, 420 nM and over 50000 nM, respectively.

Take `COc1ccc(-c2nc3c(C)nc(-c4ccc(N5C[C@@H]6CN(C7CCC7)C[C@@H]6C5)cc4)cc3n2C)cc1OC` [Example 66, 6-(4-((3aR,6aS)-5-cyclobutylhexahydropyrrolo[3,4-c]pyrrol-2(1H)-yl)phenyl)-2-(3,4-dimethoxyphenyl)-1,4-dimethyl-1H-imidazo[4,5-c]pyridine]: the IC50 on human TLR7 is 2300 nM; against human TLR9 it was 29 nM; against human TLR8, 20000 nM.

For the compound `COc1ccc(-c2nc3cnc(-c4ccc(N5CC6(C5)CN(C(C)C)C6)cc4)cc3n2C2CC2)cc1OC` [Example 84, 1-cyclopropyl-2-(3,4-dimethoxyphenyl)-6-(4-(6-isopropyl-2,6-diazaspiro[3.3]heptan-2-yl)phenyl)-1H-imidazo[4,5-c]pyridine], the IC50 was found to be 4400 nM against human TLR7, 180 nM against human TLR9 and 2200 nM against human TLR8.

As to `Cc1nc(-c2ccc(CN3CCC(N(C)C4CC4)CC3)cc2)cc2c1nc(-c1ccc(S(C)(=O)=O)cc1)n2C` [Example 47, N-cyclopropyl-1-(4-(1,4-dimethyl-2-(4-(methylsulfonyl)phenyl)-1H-imidazo[4,5-c]pyridin-6-yl)benzyl)-N-methylpiperidin-4-amine], the figures for the IC50 at human TLR7, on human TLR9 and against human TLR8 were 1700 nM, 230 nM and 5500 nM, respectively.

The term IC50 denotes the concentration at which inhibition is half-maximal.
